From ChEMBL document CHEMBL1649347, “Clerodane diterpenes from Casearia arguta that act as synergistic TRAIL sensitizers” (J Nat Prod, 2010) come the findings set out here.

Test [1] deals with ACHN. Description: Cytotoxicity against TRAIL-resistant human ACHN cells assessed as cell killing after 20 to 24 hrs. It counts as functional, cell-based.
Test [2] deals with ACHN. The test is described as follows: Ratio of EC50 for TRAIL-resistant human ACHN cells to EC50 for TRAIL-resistant human ACHN cells in presence of TRAIL. It counts as functional.
Test [3] has as its system ACHN. The test is described as follows: Cytotoxicity against TRAIL-resistant human ACHN cells assessed as cell killing after 20 to 24 hrs in presence of TRAIL. In kind it is functional, cell-based.

The EC50 is the concentration needed to bring the measured effect to its halfway point.

SMILES strings stand for the structures.

In the case of `C=C/C(C)=C/C[C@]1(C)[C@H](C)[C@@H](O)C[C@@]23C(=C[C@H](OC(=O)/C=C\C=C\CCCCC)C[C@@H]12)[C@@H](OC(C)=O)O[C@H]3OC(C)=O` [ARGUTIN E], the EC50 in the test on ACHN [1] was 3.3 µM; with ACHN [3] it was 2.2 µM. Besides, the “Ratio EC50” value with ACHN [2] is 1.5.
Take `C=CC(=C)[C@@H](C[C@]1(C)[C@H](C)C[C@@H](O)[C@@]23C(=C[C@H](OC(=O)/C=C\C=C\CCCCC)C[C@@H]12)[C@@H](OC(C)=O)O[C@H]3OC(C)=O)OO` [ARGUTIN F]: the EC50 in the test on ACHN [1] worked out at 10.4 µM; in the test with ACHN [3], 7.1 µM. Also, the “Ratio EC50” value with ACHN [2] amounted to 1.5.
Consider `C=C/C(C)=C/C[C@]1(C)[C@H](C)C[C@@H](O)[C@@]23C(=C[C@H](OC(=O)/C=C\C=C\CCCCC)C[C@@H]12)[C@@H](OC(C)=O)O[C@H]3OC(C)=O` [ARGUTIN A], for which the EC50 was 5.4 µM in the test on ACHN [1] and 2.4 µM in the test on ACHN [3]. Besides, the “Ratio EC50” value in the test with ACHN [2] is 2.3.
On to `C=C/C(C)=C/C[C@]1(C)[C@H](C)[C@@H](O)[C@@H](OC(=O)/C=C/C=C/CCCCC)[C@@]23C(=C[C@H](O)C[C@@H]12)[C@@H](OC(C)=O)O[C@H]3OC(C)=O` [ARGUTIN D], for which the EC50 came out at 14.3 µM in the test with ACHN [1] and 8.7 µM with ACHN [3]. The “Ratio EC50” value in the test on ACHN [2] turned out to be 1.6.
For the compound `C=C/C(C)=C/C[C@]1(C)[C@H](C)[C@@H](O)[C@@H](O)[C@@]23C(=C[C@H](OC(=O)/C=C\C=C\CCCCC)C[C@@H]12)[C@@H](OC(C)=O)O[C@H]3OC(C)=O` [ARGUTIN C], the EC50 with ACHN [1] was found to be 3.1 µM; in the test on ACHN [3], 1.6 µM. Further, the “Ratio EC50” value in the test on ACHN [2] is 1.9.
In the case of `C=CC(=C)[C@@H](C[C@]1(C)[C@H](C)[C@@H](O)[C@@H](O)[C@@]23C(=C[C@H](OC(=O)/C=C\C=C\CCCCC)C[C@@H]12)[C@@H](OC(C)=O)O[C@H]3OC(C)=O)OO` [ARGUTIN G], the figures for the EC50 in the test on ACHN [1] and with ACHN [3] were 4.2 µM and 2.8 µM, respectively. Moreover, the “Ratio EC50” value with ACHN [2] amounted to 1.5.
For `C=C/C(C)=C/C[C@]1(C)[C@H](C)C[C@@H](OC(=O)/C=C/C=C/CCCCC)[C@@]23C(=C[C@H](O)C[C@@H]12)[C@@H](OC(C)=O)O[C@H]3OC(C)=O` [ARGUTIN B], the EC50 with ACHN [1] is 13.8 µM; with ACHN [3], 4.6 µM. The “Ratio EC50” value in the test on ACHN [2] is on record as 3.
